Patent publication US10273263B2, “Pro-drug forming compounds” (priority 2013, dated 2019)
Where two headings read alike, the source gives them in different places.

Key:
[1] = oral biological activity: % uterine weight increase compared to vehicle; type: in vivo, rat; settings: for change in vivo at 0.03 mg / change in vivo at 0.01 mg: Rattus norvegicus, oral; for change in vivo at 0.03 mg: 30.0 μg; for change in vivo at 0.01 mg: 10.0 μg
Method: Exemplary compounds were tested for: oral biological activity (Table 1); binding to human carbonic anhydrase II (hCA 2) (Table 2); and, for some compounds enzymatic saponification (Table 3).

[2] = biological target: human carbonic anhydrase II (hCA 2) (Homo sapiens, UniProt P00918); assay: Human Carbonic Anhydrase II inhibition; type: biochemical

With `C[C@]12CCC3c4ccc(O)cc4CCC3C1CC[C@@H]2OC(=O)c1cccc(S(N)(=O)=O)c1` (stereo partly drawn) [Compound 1A, (13S, 17S)-3-hydroxy-13-methyl-7,8,9,11,12,13,14,15,16,17-decahydro-6H-cyclopenta[a]phenanthren-17-yl 3-sulfamoylbenzoate, reference compound] the change in vivo at 0.03 mg [1] was 212% and the IC50 ([2]; read-out: hCAII (IC50 nM)) was 258 nM.

In the case of `C[C@]12CCC3c4ccc(O)cc4CCC3C1CC[C@@H]2OC(=O)COC(=O)c1cccc(S(N)(=O)=O)c1` (stereo partly drawn) [Compound 2A, 2-((13S,17S)-3-hydroxy-13-methyl-7,8,9,11,12,13,14,15,16,17-decahydro-6H-cyclopenta[a]phenanthren-17-yloxy)-2-oxoethyl 3-sulfamoylbenzoate], the IC50 ([2]; read-out: hCAII (IC50 nM)) is reported as 3500 nM.

Work on `C[C@]12CCC3c4ccc(O)cc4CCC3C1CC[C@@H]2OC(=O)COC(=O)c1ccc(S(N)(=O)=O)cc1` (stereo partly drawn) [Compound 3A, 2-((13S,17S)-3-hydroxy-13-methyl-7,8,9,11,12,13,14,15,16,17-decahydro-6H-cyclopenta[a]phenanthren-17-yloxy)-2-oxoethyl 4-sulfamoylbenzoate] yielded a change in vivo at 0.03 mg [1] of 197% and an IC50 ([2]; read-out: hCAII (IC50 nM)) of 250 nM.

Molecule `C[C@]12CCC3c4ccc(O)cc4CCC3C1CC[C@@H]2OC(=O)/C=C/C(=O)NCc1ccc(S(N)(=O)=O)cc1` (stereo partly shown) [Compound 4A] has a change in vivo at 0.03 mg [1] of 164% and an IC50 ([2]; read-out: hCAII (IC50 nM)) of 450 nM.

For `C[C@]12CCC3c4ccc(O)cc4CCC3C1CC[C@@H]2OC(=O)CNC(=O)c1cccc(S(N)(=O)=O)c1` (stereo partly drawn) [Compound 5A, (13S,17S)-3-hydroxy-13-methyl-7,8,9,11,12,13,14,15,16,17-decahydro-6H-cyclopenta[a]phenanthren-17-yl 2-(3-sulfamoylbenzamido)-acetate], the change in vivo at 0.03 mg [1] was 171% and the IC50 ([2]; read-out: hCAII (IC50 nM)) was 42 nM.

For `C[C@]12CCC3c4ccc(O)cc4CCC3C1CC[C@@H]2OC(=O)CNC(=O)c1ccc(S(N)(=O)=O)cc1` (stereo partly drawn) [Compound 6A, (13S,17S)-3-hydroxy-13-methyl-7,8,9,11,12,13,14,15,16,17-decahydro-6H-cyclopenta[a]phenanthren-17-yl 2-(4-sulfamoylbenzamido)acetate], the change in vivo at 0.01 mg [1] was 152% and the IC50 ([2]; read-out: hCAII (IC50 nM)) was 65 nM.

For `C[C@]12CCC3c4ccc(O)cc4CCC3C1CC[C@@H]2OC(=O)[C@@H]1CCCN1C(=O)c1cccc(S(N)(=O)=O)c1` (stereo partly drawn) [Compound 7A, (2S)-((13S,17S)-3-hydroxy-13-methyl-7,8,9,11,12,13,14,15,16,17-decahydro-6H-cyclopenta[a]-phenanthren-17-yl) 1-(3-sulfamoylbenzoyl)pyrrolidine-2-carboxylate], the change in vivo at 0.01 mg [1] was 108% and the IC50 ([2]; read-out: hCAII (IC50 nM)) was 300 nM.

`C[C@]12CCC3c4ccc(O)cc4CCC3C1CC[C@@H]2OC(=O)C(F)(F)S(N)(=O)=O` (stereo partly drawn) [Compound 9A, (13S,17S)-3-hydroxy-13-methyl-7,8,9,11,12,13,14,15,16,17-decahydro-6H-cyclopenta[a]phenanthren-17-yl 2,2-difluoro-2-sulfamoylacetate] gave a change in vivo at 0.01 mg [1] of 218% and an IC50 ([2]; read-out: hCAII (IC50 nM)) of 85 nM.

In the case of `C[C@]12CCC3c4ccc(O)cc4CCC3C1CC[C@@H]2OC(=O)CS(N)(=O)=O` (stereo partly drawn) [Compound 10A, (13S,17S)-3-hydroxy-13-methyl-7,8,9,11,12,13,14,15,16,17-decahydro-6H-cyclopenta[a]phenanthren-17-yl 2-sulfamoylacetate], the change in vivo at 0.01 mg [1] is reported as 177% and the IC50 ([2]; read-out: hCAII (IC50 nM)) is reported as 510 nM.

For `C[C@H](NC(=O)c1cccc(S(N)(=O)=O)c1)C(=O)O[C@H]1CCC2C3CCc4cc(O)ccc4C3CC[C@@]21C` (stereo partly drawn) [Compound 11A, (2S)-((13S,17S)-3-hydroxy-13-methyl-7,8,9,11,12,13,14,15,16,17-decahydro-6H-cyclopenta[a]-phenanthren-17-yl) 2-(3-sulfamoylbenzamido)propanoate], the change in vivo at 0.01 mg [1] was 170% and the IC50 ([2]; read-out: hCAII (IC50 nM)) was 310 nM.

`C[C@H](NC(=O)c1ccc(S(N)(=O)=O)cc1)C(=O)O[C@H]1CCC2C3CCc4cc(O)ccc4C3CC[C@@]21C` (stereo partly drawn) [Compound 12A, (2S)-((13S,17S)-3-hydroxy-13-methyl-7,8,9,11,12,13,14,15,16,17-decahydro-6H-cyclopenta[a]-phenanthren-17-yl) 2-(4-sulfamoylbenzamido)propanoate] gave a change in vivo at 0.03 mg [1] of 271% and an IC50 [2] of 250 nM.

In the case of `C[C@]12CCC3c4ccc(O)cc4CCC3C1CC[C@@H]2OC(=O)CN(Cc1cccc(S(N)(=O)=O)c1)Cc1cccc(S(N)(=O)=O)c1` (stereo partly drawn) [Compound 13A, (13S,17S)-3-hydroxy-13-methyl-7,8,9,11,12,13,14,15,16,17-decahydro-6H-cyclopenta[a]phenanthren-17-yl 2-(bis(3-sulfamoylbenzyl)amino)acetate], the change in vivo at 0.03 mg [1] is reported as 136% and the IC50 ([2]; read-out: hCAII (IC50 nM)) is reported as 500 nM.

`C[C@]12CCC3c4ccc(O)cc4CCC3C1CC[C@@H]2OC(=O)CNCc1cccc(S(N)(=O)=O)c1` (stereo partly drawn) [Compound 14A, (13S,17S)-3-hydroxy-13-methyl-7,8,9,11,12,13,14,15,16,17-decahydro-6H-cyclopenta[a]phenanthren-17-yl 2-(3-sulfamoylbenzylamino)acetate] gave a change in vivo at 0.03 mg [1] of 187% and an IC50 ([2]; read-out: hCAII (IC50 nM)) of 450 nM.

`C[C@]12CCC3c4ccc(O)cc4CCC3C1CC[C@@H]2OC(=O)COc1ccc(S(N)(=O)=O)cc1` (stereo partly drawn) [Compound 15A, (13S,17S)-3-hydroxy-13-methyl-7,8,9,11,12,13,14,15,16,17-decahydro-6H-cyclopenta[a]phenanthren-17-yl 2-(4-sulfamoylphenoxy)acetate] showed a change in vivo at 0.03 mg [1] of 152% and an IC50 ([2]; read-out: hCAII (IC50 nM)) of 105 nM.

For `C[C@]12CCC3c4ccc(O)cc4CCC3C1CC[C@@H]2OC(=O)C1(S(N)(=O)=O)CC1` (stereo partly drawn) [Compound 16A, (13S,17S)-3-hydroxy-13-methyl-7,8,9,11,12,13,14,15,16,17-decahydro-6H-cyclopenta[a]phenanthren-17-yl 1-sulfamoylcyclopropanecarboxylate], the change in vivo at 0.03 mg [1] was 314%, the oral activity ([1]; oral dose, comparison in words) was “comparable high oral activity” and the IC50 ([2]; read-out: hCAII (IC50 nM)) was greater than 10000 nM.

Molecule `C[C@]12CCC3c4ccc(O)cc4CCC3C1CC[C@@H]2OC(=O)COCc1ccc(S(N)(=O)=O)cc1` (stereo partly drawn) [Compound 17A, (13S,17S)-3-hydroxy-13-methyl-7,8,9,11,12,13,14,15,16,17-decahydro-6H-cyclopenta[a]phenanthren-17-yl 2-(4-sulfamoylbenzyloxy)acetate] has a change in vivo at 0.03 mg [1] of 133% and an IC50 ([2]; read-out: hCAII (IC50 nM)) of 125 nM.

With `C[C@@H](C(=O)O[C@H]1CCC2C3CCc4cc(O)ccc4C3CC[C@@]21C)N(C)C(=O)c1ccc(S(N)(=O)=O)cc1` (stereo partly drawn) [Compound 18A, [(13S,17S)-3-hydroxy-13-methyl-6,7,8,9,11,12,14,15,16,17-decahydrocyclopenta[a]phenanthren-17-yl](2S)-2-[methyl-(4-sulfamoylbenzoyl)amino]propanoate] the change in vivo at 0.01 mg [1] was 209% and the IC50 [2] was 203 nM.

Work on `CC(C)[C@H](NC(=O)c1ccc(S(N)(=O)=O)cc1)C(=O)O[C@H]1CCC2C3CCc4cc(O)ccc4C3CC[C@@]21C` (stereo partly drawn) [Compound 19A, [(13S,17S)-3-hydroxy-13-methyl-6,7,8,9,11,12,14,15,16,17-decahydrocyclopenta[a]phenanthren-17-yl] (2S)-3-methyl-2-[(4-sulfamoylbenzoyl)amino]butanoate] yielded a change in vivo at 0.01 mg [1] of 267% and an IC50 ([2]; read-out: hCAII (IC50 nM)) of 202 nM.

`CC(C)(NC(=O)c1ccc(S(N)(=O)=O)cc1)C(=O)O[C@H]1CCC2C3CCc4cc(O)ccc4C3CC[C@@]21C` (stereo partly drawn) [Compound 20A, [(13S,17S)-3-hydroxy-13-methyl-6,7,8,9,11,12,14,15,16,17-decahydrocyclopenta[a]phenanthren-17-yl] 2-methyl-2-[(4-sulfamoylbenzoyl)amino]propanoate] showed a change in vivo at 0.01 mg [1] of 97.1% and an IC50 [2] of 232 nM.

For `C[C@]12CCC3c4ccc(O)cc4CCC3C1CC[C@@H]2OC(=O)[C@H](Cc1ccccc1)NC(=O)c1ccc(S(N)(=O)=O)cc1` (stereo partly drawn) [Compound 21A, [(13S,17S)-3-hydroxy-13-methyl-6,7,8,9,11,12,14,15,16,17-decahydrocyclopenta[a]phenanthren-17-yl] (2S)-3-phenyl-2-[(4-sulfamoylbenzoyl)amino]propanoate], the change in vivo at 0.01 mg [1] was 117% and the IC50 ([2]; read-out: hCAII (IC50 nM)) was 100 nM.

With `C[C@]12CCC3c4ccc(O)cc4CCC3C1CC[C@@H]2OC(=O)[C@@H]1CCCN1c1ccc(S(N)(=O)=O)cc1` (stereo partly drawn) [Compound 22A, [(13S,17S)-3-hydroxy-13-methyl-6,7,8,9,11,12,14,15,16,17-decahydrocyclopenta[a]phenanthren-17-yl] 1-(4-sulfamoylphenyl)pyrrolidine-2-carboxylate] the change in vivo at 0.01 mg [1] was 91.6% and the IC50 ([2]; read-out: hCAII (IC50 nM)) was 198 nM.

Molecule `C[C@]12CCC3c4ccc(O)cc4CCC3C1CC[C@@H]2OC(=O)[C@@H]1CCCN1Cc1ccc(S(N)(=O)=O)cc1` (stereo partly drawn) [Compound 23A, [(13S,17S)-3-hydroxy-13-methyl-6,7,8,9,11,12,14,15,16,17-decahydrocyclopenta[a]phenanthren-17-yl] 1-[(4-sulfamoylphenyl)methyl]pyrrolidine-2-carboxylate] has a change in vivo at 0.01 mg [1] of 272% and an IC50 ([2]; read-out: hCAII (IC50 nM)) of 129 nM.

With `C[C@]12CC[C@@H]3c4ccc(O)cc4CC[C@H]3[C@@H]1CC[C@@H]2O` [Compound E2, estradiol, reference compound] the change in vivo at 0.01 mg [1] was 118%.

`C#C[C@]1(O)CC[C@H]2[C@@H]3CCc4cc(O)ccc4[C@H]3CC[C@@]21C` [EE, ethinyl estradiol, reference compound] gave a change in vivo at 0.01 mg [1] of 154%.
